pIC50: −log10 of the molar value. Residues, ends and D or L forms follow the SMILES beside them.
Tests used:
Albumin [1] = target: T1, Albumin (Homo sapiens, UniProt P02768); test: Inhibition of D-glucose glycation in human serum albumin model by measuring absorbance at 279 nm incubated for 33 days by UV spectroscopic analysis (reference value: 1.997); conditions: 792 h, time 33 day
Albumin [2] = target: T1, Albumin; test: Inhibition of D-glucose glycation in human serum albumin model by measuring ketoamine moieties incubated for 26 days by Nitroblue tetrazolium (NBT) reduction assay (reference value: 28.79 nmol/mL); conditions: 624 h, time 26 day
Albumin [3] = target: T1, Albumin; test: Inhibition of D-glucose glycation in human serum albumin model by measuring ketoamine moieties incubated for 3 days by Nitroblue tetrazolium (NBT) reduction assay (reference value: 24.27 nmol/mL); conditions: 72 h, time 3 day
Mus musculus [4] = test: Antidiabetic activity in Nicotinamide/Streptozotocin induced male Balb/c mouse model assessed as change in body weight at 63.81 ug/kg, ip treated for 21 days relative to control; type: functional; conditions: dose 63.81 µg/kg, time 21 day
Mus musculus [5] = test: Antidiabetic activity in Nicotinamide/Streptozotocin induced male Balb/c mouse model assessed as TC/HDL-Cholesterol ratio in blood at 63.81 ug/kg, ip treated for 21 days (reference value: 4.03); type: functional; conditions: dose 63.81 µg/kg, time 21 day
Albumin [6] = target: T1, Albumin; test: Inhibition of D-glucose glycation in human serum albumin model by measuring absorbance at 279 nm incubated for 30 days by UV spectroscopic analysis (reference value: 2.295); conditions: 720 h, time 30 day
Mus musculus [7] = test: Antidiabetic activity in Nicotinamide/Streptozotocin induced male Balb/c mouse model assessed as reduction in LDL-Cholesterol level in blood at 63.81 ug/kg, ip treated for 21 days (reference value: 46 +/- 2.30 mg/dL); type: functional; conditions: dose 63.81 µg/kg, time 21 day
Albumin [8] = target: T1, Albumin; test: Inhibition of D-fructose glycation in human serum albumin model by measuring absorbance at 279 nm incubated for 7 days by UV spectroscopic analysis (reference value: 1.072); conditions: 168 h, time 7 day
Mus musculus [9] = test: Antidiabetic activity in Nicotinamide/Streptozotocin induced male Balb/c mouse model assessed as change in body weight at 63.81 ug/kg, ip treated for 21 days (reference value: 16.62 +/- 0.83 g); type: functional; conditions: dose 63.81 µg/kg, time 21 day
Albumin [10] = target: T1, Albumin; test: Inhibition of D-fructose glycation in human serum albumin model by measuring absorbance at 279 nm incubated for 3 days by UV spectroscopic analysis (reference value: 0.492); conditions: 72 h, time 3 day
Mus musculus [11] = test: Antidiabetic activity in Nicotinamide/Streptozotocin induced male Balb/c mouse model assessed as change in body weight at 63.81 ug/kg, ip measured immediately (reference value: 25.08 +/- 1.25 g); type: functional; conditions: dose 63.81 µg/kg
Albumin [12] = target: T1, Albumin; test: Inhibition of D-fructose glycation in human serum albumin model by measuring absorbance at 279 nm incubated for 33 days by UV spectroscopic analysis (Rvb =2.222); conditions: 792 h, time 33 day
Mus musculus [13] = test: Antidiabetic activity in Nicotinamide/Streptozotocin induced male Balb/c mouse model assessed as reduction in fasting blood glucose levels at 63.81 ug/kg, ip measured after 21 days by glucometer analysis (reference value: 180.5 +/- 9.02 mg/dl); type: functional; conditions: dose 63.81 µg/kg, time 21 day
Albumin [14] = target: T1, Albumin; test: Inhibition of D-glucose glycation in human serum albumin model by measuring ketoamine moieties incubated for 7 days by Nitroblue tetrazolium (NBT) reduction assay (reference value: 35.92 nmol/mL); conditions: 168 h, time 7 day
Albumin [15] = target: T1, Albumin; test: Inhibition of D-fructose glycation in human serum albumin model by measuring ketoamine moieties incubated for 7 days by Nitroblue tetrazolium (NBT) reduction assay (reference value: 125.33 nmol/mL); conditions: 168 h, time 7 day
Mus musculus [16] = test: Antidiabetic activity in Nicotinamide/Streptozotocin induced male Balb/c mouse model assessed as reduction in aspartate transaminase level in blood at 63.81 ug/kg, ip treated for 21 days (reference value: 171 +/- 8.55 U/L); type: functional; conditions: dose 63.81 µg/kg, time 21 day
Mus musculus [17] = test: Antidiabetic activity in Nicotinamide/Streptozotocin induced male Balb/c mouse model assessed as reduction in HbA1c levels at 63.81 ug/kg, ip treated for 21 days by Turbidimetric immunoassay; type: functional; design: scale not given: the % may be the effect or the level left; conditions: dose 63.81 µg/kg, time 21 day
Albumin [18] = target: T1, Albumin; test: Inhibition of D-fructose glycation in human serum albumin model by measuring ketoamine moieties incubated for 30 days by Nitroblue tetrazolium (NBT) reduction assay (reference value: 128.71 nmol/mL); conditions: 720 h, time 30 day
Albumin [19] = target: T1, Albumin; test: Inhibition of D-fructose glycation in human serum albumin model by measuring absorbance at 279 nm incubated for 14 days by UV spectroscopic analysis (reference value: 2.333); conditions: 336 h, time 14 day
Pancreatic alpha-amylase = target: T2, Pancreatic alpha-amylase (Sus scrofa, UniProt P00690); test: Inhibition of porcine pancreatic Alpha-amylase using starch as substrate pre-incubated for 20 mins followed by substrate addition and measured after 15 mins by DNS reagent based absorbance assay
T2 sequence (P00690 whole entry): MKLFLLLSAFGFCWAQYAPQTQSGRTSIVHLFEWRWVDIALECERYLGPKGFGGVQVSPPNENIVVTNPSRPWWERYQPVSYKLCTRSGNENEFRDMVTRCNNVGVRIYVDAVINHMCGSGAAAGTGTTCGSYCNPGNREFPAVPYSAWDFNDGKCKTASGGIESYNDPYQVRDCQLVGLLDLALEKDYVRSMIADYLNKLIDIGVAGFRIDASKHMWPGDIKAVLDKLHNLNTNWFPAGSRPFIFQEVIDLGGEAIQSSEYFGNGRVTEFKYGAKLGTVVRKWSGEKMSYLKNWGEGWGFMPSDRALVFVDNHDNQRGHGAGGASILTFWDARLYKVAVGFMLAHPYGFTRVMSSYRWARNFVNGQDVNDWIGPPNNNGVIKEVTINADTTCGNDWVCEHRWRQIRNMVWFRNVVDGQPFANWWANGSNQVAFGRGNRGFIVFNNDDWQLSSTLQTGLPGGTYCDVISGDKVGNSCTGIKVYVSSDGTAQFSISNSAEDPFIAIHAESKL

Mus musculus [20] = test: Antidiabetic activity in Nicotinamide/Streptozotocin induced male Balb/c mouse model assessed as Non-HDL-Cholesterol level in blood at 63.81 ug/kg, ip treated for 21 days (reference value: 75 mg/dL); type: functional; conditions: dose 63.81 µg/kg, time 21 day
Albumin [21] = target: T1, Albumin; test: Inhibition of D-fructose glycation in human serum albumin model by measuring absorbance at 279 nm incubated for 30 days by UV spectroscopic analysis (reference value: 2.323); conditions: 720 h, time 30 day
Mus musculus [22] = test: Antidiabetic activity in Nicotinamide/Streptozotocin induced male Balb/c mouse model assessed as reduction in VLDL-cholesterol level in blood at 63.81 microg/kg, ip treated for 21 days (reference value: 14 +/- 0.6 mg/dL); type: functional; conditions: dose 63.81 µg/kg, time 21 day

T1 sequence (P02768 whole entry): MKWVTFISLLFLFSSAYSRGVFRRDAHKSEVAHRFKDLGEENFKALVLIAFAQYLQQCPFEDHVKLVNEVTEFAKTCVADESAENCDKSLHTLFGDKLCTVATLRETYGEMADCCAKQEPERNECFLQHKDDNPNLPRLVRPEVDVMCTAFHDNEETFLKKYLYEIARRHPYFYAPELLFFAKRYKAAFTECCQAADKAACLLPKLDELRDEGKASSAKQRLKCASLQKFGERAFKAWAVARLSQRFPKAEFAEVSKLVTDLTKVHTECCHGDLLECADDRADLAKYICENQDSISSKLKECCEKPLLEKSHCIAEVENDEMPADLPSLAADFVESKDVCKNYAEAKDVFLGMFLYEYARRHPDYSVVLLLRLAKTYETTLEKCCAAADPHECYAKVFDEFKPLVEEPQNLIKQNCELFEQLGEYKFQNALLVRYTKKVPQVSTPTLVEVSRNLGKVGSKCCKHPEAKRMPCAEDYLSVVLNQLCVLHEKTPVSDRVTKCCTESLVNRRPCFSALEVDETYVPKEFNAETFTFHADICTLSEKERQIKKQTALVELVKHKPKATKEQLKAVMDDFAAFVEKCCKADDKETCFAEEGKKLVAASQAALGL

SMILES: N=C(N)NCCC[C@H](N)C(=O)N[C@@H](Cc1c[nH]c2ccccc12)C(=O)N[C@@H](Cc1c[nH]c2ccccc12)C(=O)O (H-Arg-Trp-Trp-OH)
- OD (Albumin [1]): 1.236
- Activity (Albumin [2]): 20.174 nmol/mL
- Activity (Albumin [3]): 19.383 nmol/mL
- Activity (Mus musculus [4]): 2.7%
- Ratio (Mus musculus [5]): 2.63
- OD (Albumin [6]): 2.555
- Activity (Mus musculus [7]): 31 mg/dL
- OD (Albumin [8]): 0.665
- Activity (Mus musculus [9]): 30.38 g
- OD (Albumin [10]): 0.287
- Activity (Mus musculus [11]): 29.56 g
- OD (Albumin [12]): 1.298
- Activity (Mus musculus [13]): 115 mg/dL
- Activity (Albumin [14]): 12.579 nmol/mL
- Activity (Albumin [15]): 113.45 nmol/mL
- Activity (Mus musculus [16]): 152 U/L
- Activity (Mus musculus [17]): 7.2%
- Activity (Albumin [18]): 108.46 nmol/mL
- OD (Albumin [19]): 1.207
- pIC50 (Pancreatic alpha-amylase): 4.02
- Activity (Mus musculus [20]): 67 mg/dL
- OD (Albumin [21]): 1.591
- Activity (Mus musculus [22]): 11 mg/dL
